In patent US12661404B2, “Methods and materials for tissue ablation” (Mayo Foundation for Medical Education and Research, priority 2020, dated 2026):

Columns and labels:
[1] = system: rat liver; conditions: solubilized with ICG in 25%-LATTE, injected into rat liver
Procedure: Time-dependent evaluation of chemotherapy drug diffusion and retention following LATTE injection in rat liver. […] Post necropsy, near-infrared fluorescent scans (NIRF) showing ICG retention at the two injection sites. […] Fluorescent scans visualizing Doxorubicin at the medial location of the same liver.
Intrahepatic injections or LATTE mixtures were performed in Sprague Dawley rats via laparotomy. Anesthetized rats were placed in a supine position on a warming platform. The abdominal hair was removed with an electric shaver and scrubbed to disinfect the skin with triple applications of povidone-iodine alternating with 70% alcohol. […]
To assess differences in ICG or doxorubicin spreading and retention following intrahepatic injections, ex vivo spectral fluorescence imaging was performed on fixed liver tissues using the IVIS 200 system (PerkinElmer, Inc. USA). […] Cross-sectional images were acquired following near-infrared illumination at the excitation wavelength of 750 nm, while fluorescent emission was acquired at 850 nm to visualize indocyanine green (ICG); Doxorubicin was detected at an excitation wavelength of 460 nm and an emission wavelength of 560 nm. […] Fluorescent intensity was quantified in the region of interest (ROI) of each tissue. […]

[2] = system: human hepatocellular carcinoma (Hep-G2) cells; assay: cells; conditions: HepG2, 24 h, read-out: EC50, fractional viability
Procedure: HepG2 human liver cancer cell line (ATCC CRL10741; American Type Culture Collection, Manassas, VA, USA) were cultured in 75 cm^2 flasks using growth medium consisting of low glucose Dulbecco's Modified Eagle Medium (DMEM, ThermoFisher) and 10% heat-inactivated bovine serum that was supplemented with 100 IU penicillin and 10 μg/mL streptomycin (Thermo Fisher Scientific). […] The anticancer activity of LATTE on HepG2 was determined using WST-1 reagent (2-(4-Iodophenyl)-3-(4-nitrophenyl)-5-(2,4-disulfophenyl)-2H-tetrazolium sodium) assay as an indication of viability/cytotoxicity treatment. WST-1 viability assay is based on the reduction of tetrazolium salt, WST-1 to an insoluble formazan dye by electron transport across the plasma membrane in viable cells that alter the optical density of the media. […] Cell viability was calculated relative to control wells that received the growth medium alone.
All reported values are the means of three replicate experiments with each study having 8 wells per dose level. Plots of the log concentration versus fractional viability for each drug were generated for each study.

[3] = system: renal artery; parameters: species or system swine; conditions: in vivo
Procedure: Healthy Yorkshire pigs (S&S Farms, Brentwood, CA) weighing 48 to 55 kg were acclimatized for at least 4 days under standard feeding conditions and suitable temperature. Pigs were anesthetized using intramuscular injection of 5 mg kg^−1 tiletamine-zolazepam (Telazol, Zoetis), […] xylazine, and 0.02 mg kg^−1 glycopyrrolate. Pigs were then placed in a supine position and intubated on an X-ray compatible operating table (Pannomed Aeron, DRE, KY). Following intubation, anesthesia was maintained with inhalation of 1.5-3% isoflurane. During the procedure, electrocardiogram, transcutaneous oxyhemoglobin saturation (SpO2), end-tidal CO2 concentration, inspired oxygen fraction, and core temperature were monitored. Percutaneous access to the carotid artery was obtained using ultrasound guidance (ACUSON 52000, Siemens) and fluoroscopy (OEC Elite C-Arm, GE Healthcare Systems, Chicago, IL). Access needle and wire were exchanged for a 5 French catheter (Cook Medical). Over a GT-glidewire (Terumo Medical), the tip of the catheter was advanced to the renal using contrast-enhanced fluoroscopy (350 mgI mL-1 Omnipaque, GE HealthCare, MA). […] The radiopacity of NanoGel or NS hydrogel and vessel patency were assessed using digital subtraction angiography. […] At necropsy, the embolized kidneys were explanted for fluorescence imaging and histology.

| Compound | doxorubicin retention throughout the affected zone [1] | EC50 [2] [nM] | nivolumab localization (immunohistochemistry) [3] |
| --- | --- | --- | --- |
| COc1cccc2c1C(=O)c1c(O)c3c(c(O)c1C2=O)C[C@@](O)(C(=O)CO)C[C@@H]3O[C@H]1C[C@H](N)[C@H](O)[C@H](C)O1 [Doxorubicin] | up to 28 days | 1630 | – |
| Nivo: immunotherapy agent Nivolumab (an anti PD-1 antibody) | – | – | localized inside the renal artery and in the surrounding area |
